Measurements as given in publication PMC6270420, “Antibacterial Activity of Salicylanilide 4-(Trifluoromethyl)benzoates” (Molecules, 2013).
Where two headings read alike, the source gives them in different places.

System: HepG2 cells
Assay: Cytotoxicity evaluation (CellTiter 96 MTS)
Type: cell-based, human
Conditions: read-out: IC50 HepG2
Procedure: Seven esters and their parent salicylanilides with the most robust antimicrobial activity were tested for cytotoxicity in the human hepatocellular liver carcinoma cell line HepG2 (passages 21–24; ECACC, Salisbury, UK) using a standard colorimetric method measuring a tetrazolium salt reduction (CellTiter(R) 96 AQueous One Solution Assay, Promega G3580, Madison, WI, USA).
The cells were routinely cultured in Minimum Essentials Eagle Medium (Sigma-Aldrich, Darmstadt, Germany) supplemented with 10% foetal bovine serum (PAA; Biotech, Prague, Czech Republic), 1% of L-glutamine solution (Sigma-Aldrich), and non-essential amino acids solution (Sigma-Aldrich) in a humidified atmosphere containing 5% CO2 at 37 °C. For subculturing, the cells were harvested after trypsin/EDTA (Sigma-Aldrich) treatment at 37 °C. The cells treated with the tested substances were used as experimental groups. Untreated HepG2 cells were used as control groups.
The cells were seeded in density 1 × 10^4 cells per well in a 96-well plate with microscopic control. Next day, the cells were treated with each of the tested substances. […] The most of the tested compounds were prepared in incubation concentrations of 0.01–20 µM in triplicates. 4-(Trifluoromethyl)benzoic acid was applied in the concentrations of 10–4,000 µM in triplicates. The following types of controls were included: determination of 100% viability and 0% viability (the cells treated by 10% DMSO), no cell control and vehiculum controls. These checking samples were prepared in triplicates.
The treated cells were incubated together with controls at 37 °C for 24 h in 5% CO2 atmosphere. After this time reagent from the kit CellTiter 96 AQueous One Solution Cell Proliferation Assay was added. The CellTiter 96 assay is based on the reduction of tetrazolium salt MTS [3-(4,5-dimethylthiazol-2-yl)-5-(3-carboxymethoxyphenyl)-2-(4-sulfophenyl)-2H-tetrazolium] to water-soluble formazan dye by metabolically active cells. The reduction of the reagent is attributed to availability of NADH or NADPH. The decline in levels of these metabolically important compounds in the cell causes that the production of formazan is reduced. The tested plate was incubated for 2 h at 37 °C and 5% CO2 and after this time, the absorbance was recorded at 490 nm using a 96-well plate reader (TECAN, Infinite M200, Grödig, Austria).
The results were expressed as inhibitory concentration which is necessary to inhibit cell viability to 50% from the maximal (control) viability (IC50). A standard toxicological parameter IC50 was calculated in each of the tested substances using GraphPad Prism software (version 5.02; GraphPad Software Inc., San Diego, CA, USA).

SMILES | IC50 (24 h, cytotoxicity) [µM] | further results
O=C(Nc1ccc(Cl)c(Cl)c1)c1ccc(Cl)cc1O [SAL-2] | 1.8 | 
O=C(Nc1cccc(Br)c1)c1cc(Cl)ccc1O [SAL-3] | 1.54 | 
O=C(Nc1ccc(Br)cc1)c1ccc(Cl)cc1O [SAL-4] | 1.98 | 
O=C(Nc1ccc(C(F)(F)F)cc1)c1cc(Cl)ccc1O [SAL-5, 5-chloro-2-hydroxy-N-[4-(trifluoromethyl)phenyl]benzamide] |  | IC50 (Homo sapiens, HepG2, 24 h, cytotoxicity): 0.36 µM
O=C(Nc1ccc(C(F)(F)F)cc1)c1ccc(Cl)cc1O [SAL-6] | 0.69 | 
O=C(Nc1ccc(C(F)(F)F)cc1)c1cc(Br)ccc1O [SAL-7, 5-Bromo-2-hydroxy-N-[4-(trifluoromethyl)phenyl]benzamide] |  | IC50 (Homo sapiens, HepG2, 24 h): 1.67 µM
